Read-outs that look alike come from different tables or passages of the source.
How the values were obtained:
3T3-L1 adipocytes [1] = assay: Partitioning of [1-14C]FFA between CO2 production and TG incorporation; format: cell-based; details: for Exogenous fatty acid converted into CO2 / Exogenous fatty acid converted into TG: 60 min, 1 mM fatty acid in 0.2 mM BSA, means ± S.E.M., n=3
Experimental: Partitioning of [1-^14C]FFA between CO2production7 and TG incorporation. 3T3-L1 cells were prepared in T25 culture flasks. […] The incubation was terminated after 60 min. ^14CO2 released from fatty acid oxidation was collected and quantified using a published protocol. The cellular lipids were extracted and separated by TLC. The TG fraction was scraped off and dissolved in Ecosin-A solution for scintillation counting. […] Cellular DNA was measured in parallel cultures.

3T3-L1 adipocytes [2] = assay: 13C-NMR incorporation of [1-13C]FFA into cellular TG; format: cell-based
Experimental: Incubation with [1-^13C]FFA. […] At termination, cells were washed three times with an ice-cold solution (pH 7.4) containing sucrose (250 mM), Tris (10 mM) and 2-mercaptoethanol (1 mM), scraped into the above solution containing additional EDTA (0.2 mM) and homogenized. Aliquots of the homogenate were stored at −80° C. for DNA and TG analysis. Aliquots for glycerol-3-phosphate dehydrogenase (G3PD) analysis were centrifuged at 44000 g for 20 min and the supernatants were stored at −80° C. until analysis. The homogenates were then extracted for lipids for NMR studies as described previously.
Quantification of ^13C label incorporation into cellular TG from the NMR peak intensity. The ^13C-NMR spectra were obtained at 125 MHz on a Bruker DMX-500 spectrometer with a 5-mm triple resonance probe (Bilerica, Mass., U.S.A.). Other details have been described in our previous reports. The absolute intensities of ^13C═O signals were measured by reference to an internal standard. […] For cells incubated with [1-^13C]octanoate, the signals from direct incorporation of [1-^13C]octanoate were less intense than the C═O signals from unlabelled TG (FIG. 1B; signals from unlabelled saturated acyl chains overlapped those of esterified [1-^13C]octanoate, but were generally 30-40% of their unsaturated counterparts in control cultures). Therefore, the signal intensity from direct incorporation of [1-^13C]octanoate was obtained by subtracting the background signal from control. This may not be completely accurate when octanoate incorporation is very limited.

3T3L1 fat cells = assay: TG storage and plasma membrane phospholipid fatty acid composition, oleate/linoleate with octanoate; format: cell-based
Experimental: This reduced the cellular TG storage from 41.5 to 27.0 μg/μgDNA. The fatty acid composition in the plasma membrane phospholipids (FIG. 15) was less drastically affected by exogenous fatty acids than that in the TG fraction (FIG. 14).

3T3-L1 cells = assay: Fatty acid induced differentiation (cellular TG content, G3PD activity), no MDI; format: cell-based; details: for G3PD / TG: basal medium with insulin 2.5 μg/ml, no MDI, means ± S.E.M., n=3; for Cell loss after extended fatty acid incubation: microscopy, corroborated by DNA analysis; for Time after incubation at which lipid droplets began to appear: undifferentiated cells, not treated with MDI
Experimental: Fatty acid induced differentiation. […] The 5:1 molar ratio of FFA/BSA promotes net transfer of FFA from BSA-binding sites to cells. No MDI treatment was applied to these cultures.
Measurement of total cellular DNA, TG and G3PD activity. […] G3PD was measured by following the disappearance of NADH during enzyme-catalysed dihydroxyacetone phosphate reduction under zero-order conditions.

3T3-L1 fat cells = assay: Basal lipolysis and turnover of esterified fatty acids (glycerol release, NMR, GLC); format: cell-based; details: for 8:0 acyl chains in cellular TG: means ± S.E.M.; for [1-13C]fatty acid remaining esterified in TG: NMR, ±S.E.M.
Experimental: Measurement of basal lipolysis. […] Control cultures were terminated at this time, and cells were homogenated for TG and DNA analysis. After aliquots were taken for these analyses, cellular lipids were extracted for NMR and GLC analysis. Parallel cultures were washed three times with PBS solution and incubated with serum-free DMEM containing 1% BSA, conditions that favour basal lipolysis. At the end of the incubation, media were aspirated and assayed for glycerol (Sigma procedure no. 337A [27]), and the cells were harvested for analysis as described above.
Quantification of ^13C label incorporation into cellular TG from the NMR peak intensity. The ^13C-NMR spectra were obtained at 125 MHz on a Bruker DMX-500 spectrometer with a 5-mm triple resonance probe (Bilerica, Mass., U.S.A.). Other details have been described in our previous reports. The absolute intensities of ^13C═O signals were measured by reference to an internal standard. […] Therefore, the signal intensity from direct incorporation of [1-^13C]octanoate was obtained by subtracting the background signal from control.
Methylation of TG and GLC analysis of fatty acyl composition. The lipid components of cell extracts were separated by TLC (hexane/ethyl ether/acetic acid, 70:30:1). Methylation was performed by incubation in BF3-methanol solution (14%, v/v, BF3 in methanol) at 60° C. for 30 min. The fatty acid methyl ester was extracted into a hexane solution. The hexane solution was dried with anhydrous sodium sulphate. To avoid the evaporation of methyl octanoate, the hexane solution was used directly for GLC study without further condensation. GLC analysis was performed on a Shimuzu 14A gas chromatograph with a Supelco SP™-2380 capillary column with an initial oven temperature of 150° C., final temperature of 240° C., heating rate of 4° C./min, injector temperature of 220° C. and detector temperature of 240° C. Carrier gas (He) was at 50 kPa, make-up carrier gas (He) at 100 kPa, hydrogen gas at 55 kPa and compressed air at 50 kPa. The sample was injected in 1-1.5 μl with splitting rate of 1:25.

[3] = 6 h intravenous infusion of octanoic acid, cited from earlier work
[4] = replacement of 20% oleate by octanoate
[5] = After 96 h incubation with DMEM (1% BSA)
[6] = After 96 h incubation with DMEM (1% BSA), n=3
[7] = Before 96 h incubation with DMEM (1% BSA)
[8] = Before 96 h incubation with DMEM (1% BSA), n=3
[9] = after 96-h incubation with DMEM, n=3

CCCCCCCC(=O)O [Octanoate, octanoate]
Actual amount of CO2 produced from octanoate relative to exogenous oleate (3T3-L1 adipocytes [1]; 8 vs 18 CO2 per acyl chain): about 3 fold | Exogenous fatty acid converted into CO2 (3T3-L1 adipocytes [1]): 8.4 ± 1.2 nmol/h per μg of DNA | Exogenous fatty acid converted into TG (3T3-L1 adipocytes [1]): 0.9 ± 0.1 nmol/h per μg of DNA | Peak intensity ratio TG(1,3)/TG(2) (3T3-L1 adipocytes [2]; 2.0 = random access to the three glycerol carbons): higher than 2.0 | Octanoate share of total acyl chains stored, molar scale (3T3-L1 adipocytes [2]; converted to a molar scale): 20% | Amount partitioned into de novo synthesis of LCFA (3T3-L1 adipocytes [2]; detected by 13C-NMR): less than 16% | Saturated octanoate incorporation, share of total fatty acids stored (3T3-L1 adipocytes [2]; fat cells): about 10% | Time at which accumulation into TG reached a plateau (3T3-L1 adipocytes [2]; within a 24-h period): 7 h | Cellular TG storage (3T3L1 fat cells; oleate/linoleate, without or with 20% (wt %) of oleate replaced by octanoate): 27.0 μg/μgDNA | Decrease in MUFA in plasma membrane phospholipids (3T3L1 fat cells; [4]): ~15% | Increase in PUFA in plasma membrane phospholipids (3T3L1 fat cells; [4]): ~20% | Increase in SFA in plasma membrane phospholipids (3T3L1 fat cells; [4]): ~10% | G3PD (3T3-L1 cells; Day 6): 0.09 ± 0.01 nmol/min per μg of DNA | TG (3T3-L1 cells; Day 6): 0.1 ± 0.02 μg/μg of DNA | G3PD (3T3-L1 cells; Day 9): 0.2 ± 0.01 nmol/min per μg of DNA | TG (3T3-L1 cells; Day 9): 0.6 ± 0.04 μg/μg of DNA | Cell loss after extended fatty acid incubation (3T3-L1 cells): less significant | Time after incubation at which lipid droplets began to appear (3T3-L1 cells): 6 days | Absolute amount of octanoate remaining in TG, of original amount (3T3-L1 fat cells; 96 h, total TG content doubled): about 20% | 14:0 acyl chains in cellular TG (3T3-L1 fat cells; [5]): 3.88 ± 0.21% | 14:1 acyl chains in cellular TG (3T3-L1 fat cells; [5]): 5.78 ± 0.11% | 15:0 acyl chains in cellular TG (3T3-L1 fat cells; [5]): 1.63 ± 0.17% | 15:1 acyl chains in cellular TG (3T3-L1 fat cells; [5]): 1.41 ± 0.09% | 16:0 acyl chains in cellular TG (3T3-L1 fat cells; [5]): 24.45 ± 0.03% | 16:1 acyl chains in cellular TG (3T3-L1 fat cells; [5]): 47.64 ± 0.34% | 17:0 acyl chains in cellular TG (3T3-L1 fat cells; [5]): 0.85 ± 0.096% | 17:1 acyl chains in cellular TG (3T3-L1 fat cells; [5]): 4.73 ± 0.12% | 18:0 acyl chains in cellular TG (3T3-L1 fat cells; [5]): 0.51 ± 0.16% | 18:1 n9 acyl chains in cellular TG (3T3-L1 fat cells; [5]): 6.2 ± 0.29% | 18:1 n11 acyl chains in cellular TG (3T3-L1 fat cells; [5]): 1.95 ± 0.13% | 8:0 acyl chains in cellular TG (3T3-L1 fat cells; [6]): 0.99 ± 0.05% | 14:0 acyl chains in cellular TG (3T3-L1 fat cells; [7]): 3.74 ± 0.04% | 14:1 acyl chains in cellular TG (3T3-L1 fat cells; [7]): 5.56 ± 0.29% | 15:0 acyl chains in cellular TG (3T3-L1 fat cells; [7]): 1.43 ± 0.14% | 15:1 acyl chains in cellular TG (3T3-L1 fat cells; [7]): 1.4 ± 0.14% | 16:0 acyl chains in cellular TG (3T3-L1 fat cells; [7]): 24.62 ± 0.35% | 16:1 acyl chains in cellular TG (3T3-L1 fat cells; [7]): 38.61 ± 0.2% | 17:0 acyl chains in cellular TG (3T3-L1 fat cells; [7]): 0.9 ± 0.03% | 17:1 acyl chains in cellular TG (3T3-L1 fat cells; [7]): 3.89 ± 0.1% | 18:0 acyl chains in cellular TG (3T3-L1 fat cells; [7]): 0.49 ± 0.02% | 18:1 n9 acyl chains in cellular TG (3T3-L1 fat cells; [7]): 6.69 ± 0.09% | 18:1 n11 acyl chains in cellular TG (3T3-L1 fat cells; [7]): 2.34 ± 0.05% | 8:0 acyl chains in cellular TG (3T3-L1 fat cells; [8]): 10.33 ± 0.3% | [1-13C]fatty acid remaining esterified in TG (3T3-L1 fat cells; [9]): About 21±1.2% | Proportion of octanoate in total stored fatty acids (3T3-L1 fat cells; [9]): about 1±0.1% | Octanoate incorporation, share of total acyl composition (3T3-L1 fat cells; before incubation with DMEM, n=3): 10±0.9% | Octanoate recovered as CO2 ([3]; fasted rats): ≤ 90% | Octanoate recovered as CO2 ([3]; fed rats): up to 82%

CCCCCCCC/C=C\CCCCCCCC(=O)O [Oleate, oleate, reference compound]
Exogenous fatty acid converted into CO2 (3T3-L1 adipocytes [1]): 0.7 ± 0.1 nmol/h per μg of DNA | Exogenous fatty acid converted into TG (3T3-L1 adipocytes [1]): 7.6 ± 0.8 nmol/h per μg of DNA | G3PD (3T3-L1 cells; Day 6): 0.45 ± 0.02 nmol/min per μg of DNA | TG (3T3-L1 cells; Day 6): 1.7 ± 0.2 μg/μg of DNA | G3PD (3T3-L1 cells; Day 9): 1.7 ± 0.1 nmol/min per μg of DNA | TG (3T3-L1 cells; Day 9): 5.1 ± 0.3 μg/μg of DNA | Cell loss after extended fatty acid incubation (3T3-L1 cells): ~20% | Oleate share of accumulated TG (3T3-L1 cells; oleate-treated cells): > 80% | Time after incubation at which lipid droplets began to appear (3T3-L1 cells): 3 days | 14:0 acyl chains in cellular TG (3T3-L1 fat cells; [5]): 3.28 ± 0.02% | 14:1 acyl chains in cellular TG (3T3-L1 fat cells; [5]): 5.48 ± 0.03% | 15:0 acyl chains in cellular TG (3T3-L1 fat cells; [5]): 1.36 ± 0.02% | 15:1 acyl chains in cellular TG (3T3-L1 fat cells; [5]): 1.24 ± 0.09% | 16:0 acyl chains in cellular TG (3T3-L1 fat cells; [5]): 23.65 ± 0.03% | 16:1 acyl chains in cellular TG (3T3-L1 fat cells; [5]): 38.65 ± 0.2% | 17:0 acyl chains in cellular TG (3T3-L1 fat cells; [5]): 0.75 ± 0.03% | 17:1 acyl chains in cellular TG (3T3-L1 fat cells; [5]): 3.98 ± 0.07% | 18:0 acyl chains in cellular TG (3T3-L1 fat cells; [5]): 0.41 ± 0.02% | 18:1 n9 acyl chains in cellular TG (3T3-L1 fat cells; [5]): 19.71 ± 0.02% | 18:1 n11 acyl chains in cellular TG (3T3-L1 fat cells; [5]): 1.51 ± 0.12% | 8:0 acyl chains in cellular TG (3T3-L1 fat cells; [6]): 0% | 14:0 acyl chains in cellular TG (3T3-L1 fat cells; [7]): 2.84 ± 0.09% | 14:1 acyl chains in cellular TG (3T3-L1 fat cells; [7]): 4.75 ± 0.08% | 15:1 acyl chains in cellular TG (3T3-L1 fat cells; [7]): 0.81 ± 0.01% | 16:0 acyl chains in cellular TG (3T3-L1 fat cells; [7]): 20.01 ± 0.36% | 16:1 acyl chains in cellular TG (3T3-L1 fat cells; [7]): 27.34 ± 0.29% | 17:0 acyl chains in cellular TG (3T3-L1 fat cells; [7]): 0.82 ± 0.03% | 17:1 acyl chains in cellular TG (3T3-L1 fat cells; [7]): 3.31 ± 0.26% | 18:0 acyl chains in cellular TG (3T3-L1 fat cells; [7]): 0.38 ± 0.04% | 18:1 n9 acyl chains in cellular TG (3T3-L1 fat cells; [7]): 36.4 ± 0.4% | 18:1 n11 acyl chains in cellular TG (3T3-L1 fat cells; [7]): 1.35 ± 0.07% | 8:0 acyl chains in cellular TG (3T3-L1 fat cells; [8]): 0% | Decline of proportion of oleate in cellular TG (3T3-L1 fat cells; after 96-h incubation with DMEM, GLC): 50% | [1-13C]fatty acid remaining esterified in TG (3T3-L1 fat cells; [9]): over 99±3.3%

Source: patent US20050019372A1, “Modified-fat nutritional products useful preventing or treating obesity” (priority 2001, published 2005)
